Values of other authors in patent US20240339215A1, “SYSTEM AND METHOD FOR DRUG SELECTION” (Board of Regents, The University of Texas System, priority 2023, published 2024).
Read-outs that look alike come from different tables or passages of the source.

Tested on: breast cancer cell lines

Measured: synergistic effect of combination

Cc1cc([C@@H](C)Nc2ccccc2C(=O)O)c2nc(N3CCOCC3)cc(=O)n2c1 [AZD6482]
synergistic effects: combined with Linsitinib | combined with MK-1775 (Adavosertib) | combined with Sapitinib | combined with Vorinostat
